Assay [1] has as its target T1, HpαCA (Helicobacter pylori, UniProt B5Z8I0).
T1 construct: gene HPG27_1129; recombinant, obtained in-house; PDB 4XFW is given for docking only
T1 sequence (B5Z8I0 22-247): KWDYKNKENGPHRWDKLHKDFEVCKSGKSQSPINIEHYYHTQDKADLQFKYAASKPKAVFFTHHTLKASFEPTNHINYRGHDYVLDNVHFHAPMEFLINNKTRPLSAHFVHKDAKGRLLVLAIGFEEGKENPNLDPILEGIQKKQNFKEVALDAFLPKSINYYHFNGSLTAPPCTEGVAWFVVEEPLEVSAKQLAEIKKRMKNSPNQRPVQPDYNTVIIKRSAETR
The assay can be described thus: stopped-flow CO2 hydration. It counts as biochemical. The note with it: read-out: KI (nM) / Bacterial Isoforms / Hp αCA.

Assay [2] concerns T2, H. pylori ATCC 43504.
T2 construct: ATCC 43504
The assay can be described thus: microbe, parasite or virus in culture. Further details: species or system Helicobacter pylori ATCC 43504; MIC by broth microdilution, alamarBlue and CFU count; MBC by CFU count. As to conditions: Helicobacter pylori, ATCC43504. As to the method: H. pylori ATCC 43504 was cultured on a Columbia Agar base (Becton Dickinson and Company, Franklin Lakes, NJ, USA) supplemented with 10% horse serum (Merck, St. Louis, MO, USA) and 0.25% yeast extract (Oxoid Ltd., Hampshire, UK), incubated at 37 °C for 72 h in a microaerophilic atmosphere (CampyGen, Thermo Fisher Scientific, Milan, Italy). Colonies were collected and transferred into 10 mL of Brain Heart Infusion broth (BHI, Oxoid Ltd., Hampshire, UK) supplemented with 5% (v/v) of fetal bovine serum (FBS, Merck, Milan, Italy) and incubated overnight at 37 °C, at 125 rpm under microaerophilic conditions. After 18 h of incubation, the broth culture was diluted to obtain a bacterial suspension of 10^6 CFU/mL. MICs were determined by three different assays: the broth micro-dilution method, the alamarBlue assay, and the CFU count. […] This bacterium was selected based on the inhibitory potency evidenced by the two series of azobenzenesulfonamides against the HpCAs.

For assay [3], the target named is T3, hCA IX (Homo sapiens, UniProt Q16790).
T3 construct: gene CA9
The assay can be described thus: biochemical. The note with it: read-out: Human Isoforms / hCA IX. As to the method: (§1) An Applied Photophysics stopped-flow instrument was used to evaluate the ability of the test compounds to inhibit CA-catalyzed CO2 hydration. […] The CO2 concentrations ranged from 1.7 to 17 mM for the determination of the kinetic parameters and inhibition constants. Enzyme concentrations spanned from 5 to 12 nM. Stock solutions of the inhibitor (0.1 mM) were prepared in distilled–deionized water, and dilutions up to 0.01 nM were prepared with the assay buffer. Inhibitor and enzyme solutions were preincubated for 15 min at r.t. for the formation of the E–I complex. The inhibition constants were obtained by non-linear least-squares methods using PRISM 3 and the Cheng–Prusoff equation and represent the mean from at least three different determinations. Apart from human CAs I and II purchased from Merck, all the bacterial CAs were recombinant and obtained in-house. Compounds 4a–j and 5a–j were tested on a large panel of human and bacterial isoenzymes belonging to different CA families, evaluating their inhibitory activity through the CO2 hydration activity assay by means of the stopped-flow technique, and the inhibitory constants (KIs) are reported in Table 1 and Table 2, respectively. In particular, we tested the hypoxic tumor-associated hCAs IX and XII, and bacterial isoforms involved in several infectious diseases, such as those caused by H. pylori (HpαCA and HpβCA), Porphyromonas gingivalis (PgiβCA and PgiγCA), Escherichia coli (EcoβCA), Pseudomonas aeruginosa (PsCA3, belonging to the β-class), Mammaliicoccus (Staphylococcus) sciuri (MscCA, belonging to the β-class), and Streptococcus mutans (SmuCA, belonging to the β-class). The inhibition of human physiologically relevant isoforms I and II was also investigated in order to assess the compounds’ selectivity. Our main aim was to rationalize the structural requirements of sulfonamide-containing compounds useful for targeting HpCAs, in order to gain a larger knowledge for further optimization studies focusing on isoform selectivity. In fact, although the tested human and bacterial isoforms present a low degree of sequence similarity, they catalyze the same reaction and contain the catalytically active zinc ion in the active site. Thus, a comparison of the data obtained from different members of this large superfamily has a high relevance in the field. By observing Table 1 and Table 2, interesting structure–activity relationship (SAR) considerations can be inferred.

Assay [4] concerns the target T4, EcoβCA (Escherichia coli, UniProt P61517).
T4 construct: gene can; recombinant, obtained in-house
The experiment in a line: biochemical. As to conditions: read-out: Bacterial Isoforms / Eco βCA. The procedure:
as §1

Assay [5] addresses T5, PsCA3 (Pseudomonas aeruginosa, UniProt Q9HVB9).
T5 construct: gene PA4676; recombinant, obtained in-house
T5 sequence (Q9HVB9 1-215): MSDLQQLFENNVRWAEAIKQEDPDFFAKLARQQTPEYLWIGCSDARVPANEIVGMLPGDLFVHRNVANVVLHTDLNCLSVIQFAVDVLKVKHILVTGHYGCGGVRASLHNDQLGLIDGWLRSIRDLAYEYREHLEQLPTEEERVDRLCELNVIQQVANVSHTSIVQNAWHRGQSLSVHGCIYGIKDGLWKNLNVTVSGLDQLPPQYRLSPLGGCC
The assay can be described thus: biochemical. The note with it: read-out: Bacterial Isoforms / Ps CA3. The procedure: as §1

The target of assay [6] is T6, hCA II (Homo sapiens, UniProt P00918).
T6 construct: gene CA2; purchased from Merck
The assay can be described thus: biochemical. As to conditions: read-out: Human Isoforms / hCA II. The procedure: as §1

In assay [7] the target is T7, hCA I (Homo sapiens, UniProt P00915).
T7 construct: gene CA1; purchased from Merck
The experiment in a line: biochemical. As to conditions: read-out: Human Isoforms / hCA I. As to the method: as §1

Assay [8] deals with T8, hCA XII (Homo sapiens, UniProt O43570).
T8 construct: gene CA12
The assay can be described thus: biochemical. As to conditions: read-out: Human Isoforms / hCA XII. The procedure:
as §1

≈ marks a conversion by molar mass, not a printed value.

T8 sequence (O43570 30-289 limits assumed): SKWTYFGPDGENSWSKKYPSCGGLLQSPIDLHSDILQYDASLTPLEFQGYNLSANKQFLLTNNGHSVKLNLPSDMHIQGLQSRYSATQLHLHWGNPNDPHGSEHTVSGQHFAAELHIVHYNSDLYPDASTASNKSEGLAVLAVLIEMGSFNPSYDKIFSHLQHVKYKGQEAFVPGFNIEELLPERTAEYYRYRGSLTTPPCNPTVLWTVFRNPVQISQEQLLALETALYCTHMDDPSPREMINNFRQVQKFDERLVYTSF
T4 sequence (P61517 whole entry): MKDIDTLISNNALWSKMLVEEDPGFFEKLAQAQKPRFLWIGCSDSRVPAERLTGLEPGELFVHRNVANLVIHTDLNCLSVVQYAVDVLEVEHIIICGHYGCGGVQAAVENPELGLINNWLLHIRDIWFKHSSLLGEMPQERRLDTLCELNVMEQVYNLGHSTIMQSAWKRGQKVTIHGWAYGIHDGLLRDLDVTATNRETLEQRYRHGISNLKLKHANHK
T7 sequence (P00915 2-261): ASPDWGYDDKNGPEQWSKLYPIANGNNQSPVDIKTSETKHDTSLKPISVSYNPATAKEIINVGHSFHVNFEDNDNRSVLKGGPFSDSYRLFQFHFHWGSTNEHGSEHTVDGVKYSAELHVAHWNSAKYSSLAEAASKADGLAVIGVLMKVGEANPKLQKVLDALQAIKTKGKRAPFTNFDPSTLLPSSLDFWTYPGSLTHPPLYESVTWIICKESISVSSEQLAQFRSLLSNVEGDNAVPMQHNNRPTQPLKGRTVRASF

As for `O=[N+]([O-])c1cccc(S(=O)(=O)Nc2ccc(N=Nc3ccccc3)cc2)c1` [5d], the Ki in assay [1] was 70.9 nM; in assay [3], 0.601 µM; in assay [4] it was 9.08 µM; in assay [5], 90.2 µM; in assay [6] it was > 100 µM; in assay [7], 6.75 µM. The Ki in assay [8] was 0.215 µM. This compound returned an MBC in assay [2] of 64 µg/mL (≈ 167 µM). Moreover, the MIC in assay [2] was found to be 16 µg/mL (≈ 41.8 µM).

In the case of `Cc1ccc(S(=O)(=O)Nc2ccc(N=Nc3ccccc3)cc2)cc1[N+](=O)[O-]` [5e], the Ki in assay [1] is 604 nM; in assay [3], 0.792 µM; in assay [4] it was 59 µM; in assay [5] it was > 100 µM; in assay [6], > 100 µM; in assay [7], 0.853 µM. Moreover, the Ki in assay [8] was determined as 0.847 µM. Besides, the MBC in assay [2] is 16 µg/mL (≈ 40.4 µM). The MIC in assay [2] turned out to be 8 µg/mL (≈ 20.2 µM).

Consider `COc1ccc(S(=O)(=O)Nc2ccc(N=Nc3ccccc3)cc2)c(OC)c1` [5f], for which the Ki in assay [1] is 71.3 nM; in assay [3], 5.74 µM; in assay [4], 77.7 µM; in assay [5], > 100 µM; in assay [6], > 100 µM; in assay [7], 0.905 µM. The Ki in assay [8] came out at 0.894 µM. In assay [2], the MBC was found to be 4 µg/mL (≈ 10.1 µM). The MIC in assay [2] was 4 µg/mL (≈ 10.1 µM).

For the compound `O=S(=O)(Nc1ccc(N=Nc2ccccc2)cc1)c1ccc(Cl)s1` [5g], the Ki in assay [1] was 55.8 nM; in assay [3] it was 4.04 µM; in assay [4], 59.2 µM; in assay [5], > 100 µM; in assay [6] it was > 100 µM; in assay [7] it was 0.905 µM. In addition, the Ki in assay [8] was found to be 4.12 µM. In assay [2], this compound yielded an MBC of 16 µg/mL (≈ 42.3 µM). In addition, in assay [2], the MIC amounted to 16 µg/mL (≈ 42.3 µM).

Regarding `O=S(=O)(Cc1ccccc1)Nc1ccc(N=Nc2ccccc2)cc1` [5h], the Ki in assay [1] was 79 nM; in assay [3], 4.49 µM; in assay [4], 88.5 µM; in assay [5], > 100 µM; in assay [6], > 100 µM; in assay [7], 5.53 µM. The Ki in assay [8] amounted to 2.25 µM. Further, in assay [2], the MBC was determined as 128 µg/mL (≈ 364 µM). The compound also gave an MIC in assay [2] of 64 µg/mL (≈ 182 µM).

Regarding `CCS(=O)(=O)Nc1ccc(N=Nc2ccccc2)cc1` [5j], the Ki in assay [1] was 68.4 nM; in assay [3] it was 7.07 µM; in assay [4] it was > 100 µM; in assay [5] it was 69.8 µM; in assay [6], > 100 µM; in assay [7] it was 0.931 µM. The Ki in assay [8] turned out to be 3.34 µM. Also, the MBC in assay [2] was determined as 16 µg/mL (≈ 55.3 µM). This compound also yielded an MIC in assay [2] of 16 µg/mL (≈ 55.3 µM).

The values above are taken from publication PMC11357054, “Azobenzenesulfonamide Carbonic Anhydrase Inhibitors as New Weapons to Fight Helicobacter pylori: Synthesis, Bioactivity Evaluation, In Vivo Toxicity, and Computational Studies” (Pharmaceuticals, 2024).
